Several values for one entry are separate records, joined by “and”; a condition that tells them apart may be missing. Equal values may be shown once.
Key:
[1] = system: Staphylococcus aureus or Escherichia coli; assay: Standard cup-plate assay of potency
[2] = system: Escherichia coli JR66/W677; assay: Minimum inhibitory concentration on nutrient agar plates, 37° C., 17 hours; format: cell-based
[3] = system: Candida albicans 3147; assay: Minimum inhibitory concentration on nutrient agar plates with 1% glucose, 27° C., 40 hours; format: cell-based
[4] = system: Piricularia oryzae; format: cell-based
[5] = system: Bacillus subtilis PCI 219; assay: Minimum inhibitory concentration on nutrient agar plates, 37° C., 17 hours; format: cell-based
[6] = system: Escherichia coli W677; assay: as above; format: cell-based
[7] = system: Aeromonas salmonecida ATCC 14174; assay: as above; format: cell-based
[8] = Stability of activity in 50% aqueous ethanol, room temperature, 16 hours; storage and methanol stability; details: for stability in 50% aqueous ethanol: 50% aqueous ethanol of pH 2.5; for activity reduced to: 50% aqueous ethanol of pH 2.5, room temperature, 16 hours; for stability as solid powder: cold and dark place
[9] = system: Pseudomonas aeruginosa No. 12; assay: Minimum inhibitory concentration on nutrient agar plates, 37° C., 17 hours; format: cell-based
[10] = system: Escherichia coli NIHJ; assay: as above; format: cell-based
[11] = system: leukemia L-1210 cells; assay: Chemotherapeutic effect against leukemia L-1210 in mice (survival); format: in vivo, mice (CDF 1 strain); details: i.p. once daily for 10 days
[12] = system: Klebsiella pneumoniae PCI 602; assay: Minimum inhibitory concentration on nutrient agar plates, 37° C., 17 hours; format: cell-based
[13] = Partition between n-butanol and water; details: pH value of 2 to 7
[14] = system: Vibrio anguillarum NCBM 6; assay: Minimum inhibitory concentration on nutrient agar plates, 37° C., 17 hours; format: cell-based
[15] = system: Aspergillus niger; assay: Minimum inhibitory concentration on nutrient agar plates with 1% glucose, 27° C., 40 hours; format: cell-based
[16] = system: Xanthomonas citri; assay: Minimum inhibitory concentration on nutrient agar plates, 37° C., 17 hours; format: cell-based
[17] = system: Xanthomonas oryzae; format: cell-based; details: 37° C., 17 hours
[18] = Acute toxicity, intraperitoneal injection in mice; details: for toxicity: animal and man, as shown by LD50 in mice; for LD50: mice, intraperitoneal, 0.25-0.5% in 10% dimethylsulfoxide-water
[19] = system: Staphylococcus aureus Smith; assay: Minimum inhibitory concentration on nutrient agar plates, 37° C., 17 hours; format: cell-based
[20] = system: Saccharomyces cerevisiae; assay: Minimum inhibitory concentration on nutrient agar plates with 1% glucose, 27° C., 40 hours; format: cell-based
[21] = system: Escherichia coli K-12; assay: Minimum inhibitory concentration on nutrient agar plates, 37° C., 17 hours; format: cell-based
[22] = system: various bacteria and fungi; assay: Antibacterial and antifungal spectrum (overall); format: cell-based
[23] = system: Staphylococcus aureus 209P; assay: Minimum inhibitory concentration on nutrient agar plates, 37° C., 17 hours; format: cell-based
[24] = isolated colorless powder (Examples 3-6)

## COc1cc2c(cc1O)N=C[C@@H]1CC[C@H](O)N1C2=O [neothramycin A]
[1]; [24]
  potency: 1000 u./mg.
[1]; pure neothramycin A from Example 3 as authentic sample
  potency: 1000 units per mg
[2]
  Minimum Inhibitory Concentration: 100 Mcg./ml.
[3]
  Minimum Inhibitory Concentration: > 100 Mcg./ml.
[4]
  Minimum Inhibitory Concentration: 50 Mcg./ml.
[5]
  Minimum Inhibitory Concentration: 100 Mcg./ml.
[6]
  Minimum Inhibitory Concentration: 50 Mcg./ml.
[7]
  Minimum Inhibitory Concentration: 25 Mcg./ml.
[8]
  stability in 50% aqueous ethanol: unstable
  activity reduced to: 25%
  stability as solid powder: stable for a long period of time
[9]
  Minimum Inhibitory Concentration: > 100 Mcg./ml.
[10]
  Minimum Inhibitory Concentration: 100 Mcg./ml.
[11]
  effects on the survival ratio: highly favorable effects
[12]
  Minimum Inhibitory Concentration: 50 Mcg./ml.
[13]
  partition coefficient in n-butanol/water: greater than 5
[14]
  Minimum Inhibitory Concentration: 50 Mcg./ml.
[15]
  Minimum Inhibitory Concentration: 100 Mcg./ml.
[16]
  Minimum Inhibitory Concentration: > 100 Mcg./ml.
[17]
  Minimum Inhibitory Concentration: 50 Mcg./ml.
[18]
  toxicity: low toxicity
  LD50: 20 to 30 mg/kg
[19]
  Minimum Inhibitory Concentration: 50 Mcg./ml.
[20]
  Minimum Inhibitory Concentration: 50 Mcg./ml.
[21]
  Minimum Inhibitory Concentration: 100 Mcg./ml.
[22]
  antibacterial and antifungal activity: low antibacterial and antifungal activity
[23]
  Minimum Inhibitory Concentration: > 100 Mcg./ml.

## COc1cc2c(cc1O)N=C[C@@H]1CC[C@@H](O)N1C2=O [neothramycin B]
[1]; [24]
  potency: 620 u./mg. and 835 u./mg.
[2]
  Minimum Inhibitory Concentration: > 100 Mcg./ml.
[3]
  Minimum Inhibitory Concentration: > 100 Mcg./ml.
[4]
  Minimum Inhibitory Concentration: > 100 Mcg./ml.
[5]
  Minimum Inhibitory Concentration: > 100 Mcg./ml.
[6]
  Minimum Inhibitory Concentration: 100 Mcg./ml.
[7]
  Minimum Inhibitory Concentration: 50 Mcg./ml.
[8]
  stability in 50% aqueous ethanol: unstable
  activity reduced to: 22%
  stability as solid powder: stable for a long period of time
[9]
  Minimum Inhibitory Concentration: > 100 Mcg./ml.
[10]
  Minimum Inhibitory Concentration: 100 Mcg./ml.
[11]
  effects on the survival ratio: highly favorable effects
[12]
  Minimum Inhibitory Concentration: 100 Mcg./ml.
[13]
  partition coefficient in n-butanol/water: greater than 5
[14]
  Minimum Inhibitory Concentration: 100 Mcg./ml.
[15]
  Minimum Inhibitory Concentration: > 100 Mcg./ml.
[16]
  Minimum Inhibitory Concentration: > 100 Mcg./ml.
[17]
  Minimum Inhibitory Concentration: 100 Mcg./ml.
[18]
  toxicity: low toxicity
  LD50: 20 to 30 mg/kg
[19]
  Minimum Inhibitory Concentration: 100 Mcg./ml.
[20]
  Minimum Inhibitory Concentration: > 100 Mcg./ml.
[21]
  Minimum Inhibitory Concentration: 100 Mcg./ml.
[22]
  antibacterial and antifungal activity: low antibacterial and antifungal activity
[23]
  Minimum Inhibitory Concentration: > 100 Mcg./ml.

— US4049497A (priority 1974, dated 1977)
